In patent publication US6207399A, “Methods of determining endogenous thrombin potential (ETP) and thrombin substrates for use in said methods” (Hemker; Hendrik Coenraad, priority 1995, dated 2001):
Square brackets hold non-standard residues; d marks the D form. Peptide text beside a SMILES is read from it. * marks the point of attachment. pNA = O=[N+]([O-])c1ccc(N*)cc1; Tos = Cc1ccc(S(=O)(=O)*)cc1; Pip = O=C(O)[C@@H]1CCCCN1; Nle = CCCC[C@H](N)C(=O)O; Orn = NCCC[C@H](N)C(=O)O

What was measured:
Type in all cases: biochemical
[1] = target: T1, human α-thrombin (Homo sapiens, UniProt P00734); assay: Kinetics of hydrolysis of substrates by human α-thrombin in buffer A at 37° C. (Example 2, Table 1); design: key to kcat: NH: not hydrolyzed by thrombin
T1 construct: Pure human α-thrombin; gift of Dr. T. Lindhout (University of Limburg, Maastricht)
Procedure: (§1) Kinetic parameters: The hydrolysis experiments were run in buffer A at 37° C. The liberation of p-nitroaniline was monitored at 405 nm in a dual wavelength (405-546 nm) spectrophotometer made in our workshop, using a personal computer for data recording. In a polystyrene microcuvette (total volume 500 μL), buffer A and substrate solution were added to obtain a final substrate concentration between 1 to 2000 μM. After 5 min of incubation at 37° C., enzyme solution was added to achieve a final concentration between 0.5 to 100 nM. The measurement was carried out at 37° C. in a thermostated cuvette-holder. The Michaelis constant (Km) and the catalytic constant (kcat) were obtained by measuring initial reaction velocities at different substrate concentrations. The data obtained were fitted by linear regression on the Michaelis-Menten equation.
(§2) Kinetic parameters: In a preliminary experiment, the substrate was hydrolyzed under the following conditions: enzyme concentration: 10 to 20 nM, substrate concentration: 200 μM in buffer A to get an impression of the initial velocity. […] The results are given in table 1 and 2 for thrombin and factor Xa respectively. The Km and kcat for each substrate were determined from the initial velocities measured for at least six substrate concentrations in the concentration range as given. The enzyme concentration used gives a good signal to noise ratio. The data given are obtained from one or two experiments. The data from table 1 and 2 were only used as the first selection criterion to get a rough impression of the hydrolysis behaviour. Notwithstanding the preliminary character of the measurement it was helpful in the design of the substrates of our interest.

[2] = target: T2, factor Xa (Homo sapiens, UniProt P00742); assay: Kinetics of hydrolysis of substrates by human factor Xa in buffer A at 37° C. (Example 2, Table 2); design: key to kcat: NH: not hydrolyzed by factor Xa
T2 construct: human factor Xa samples; gift of Dr. T. Lindhout (University of Limburg, Maastricht)
Procedure: as §1, §2

[3] = target: T2, factor Xa; assay: Kinetic parameters of hydrolysis of the substrates by factor Xa in buffer A at 37° C. (Example 4, Table 3); design: key to Factor Xa kcat: NH: no hydrolysis; settings: buffer A, 37° C., 50 nM factor Xa
Procedure: as §1, with “200” for “1”, “50” for “100”, “measuring the” for “measuring”
(§3) Kinetic parameters: The Km and kcat values for each substrate were determined at an enzyme concentration of 0.5-50 nM (thrombin) and 50 nM factor Xa. From the initial reaction velocities, measured for at least six substrate concentrations between 200 and 2000 μM, the Km and kcat values were calculated by linear regression on the Michaelis-Menten curve. Table 3 gives an overview of the kinetic parameters of the different substrates hydrolyzed by thrombin and by factor Xa in buffer A.

[4] = target: thrombin (Homo sapiens, UniProt P00734); assay: Kinetic parameters of hydrolysis of the substrates by thrombin in buffer A at 37° C. (Example 4, Table 3); design: Pure human α-thrombin; gift of Dr. T. Lindhout (University of Limburg, Maastricht); key to Thrombin kcat: NH: no hydrolysis; settings: buffer A, 37° C.
Procedure: as §1, with “200” for “1”, “50” for “100”, “measuring the” for “measuring”
as §3

T2 sequence (P00742 41-179 limits assumed): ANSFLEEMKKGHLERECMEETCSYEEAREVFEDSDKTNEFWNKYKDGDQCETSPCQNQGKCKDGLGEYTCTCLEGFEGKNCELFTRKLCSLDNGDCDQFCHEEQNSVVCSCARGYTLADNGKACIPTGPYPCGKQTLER
T2 sequence (P00742 235-488 limits assumed): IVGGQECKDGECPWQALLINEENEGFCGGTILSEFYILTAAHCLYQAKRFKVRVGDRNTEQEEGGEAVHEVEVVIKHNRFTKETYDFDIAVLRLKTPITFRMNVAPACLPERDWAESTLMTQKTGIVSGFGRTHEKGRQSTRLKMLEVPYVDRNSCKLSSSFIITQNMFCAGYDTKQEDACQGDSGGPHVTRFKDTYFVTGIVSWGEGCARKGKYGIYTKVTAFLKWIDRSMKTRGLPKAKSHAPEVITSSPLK

Row | Km [1] [µM] | kcat [1] | kcat /Km [1] [M/s] | Km [2] [µM] | kcat [2] | kcat /Km [2] [M/s] | SMILES | Factor Xa kcat [3] | Thrombin kcat [4] | Factor Xa kcat /Km [3] [M/s] | Km [3] [µM] | Km [4] [µM] | Thrombin kcat /Km [4] [M/s]
1 | 1540 | 107.5 s⁻¹ | 69900 | 5590 | 51.7 s⁻¹ | 9250 | COC(=O)CC(=O)N[C@@H](C)C(=O)N[C@@H](CCCNC(=N)N)C(=O)Nc1ccc([N+](=O)[O-])cc1.Cl [MZ-Ala-Arg-pNA.HCl] |  |  |  |  |  | 
2 |  | NH |  | 116 | 2.00 s⁻¹ | 17300 | Cl.N=C(N)NCCC[C@H](NC(=O)CNS(=O)(=O)c1ccc2ccccc2c1)C(=O)Nc1ccc([N+](=O)[O-])cc1 [βNS-Gly-Arg-pNA.HCl] |  |  |  |  |  | 
3 | 1740 | 6.60 s⁻¹ | 3800 | 6400 | 43.9 s⁻¹ | 6860 | COC(=O)C(C)C(=O)NCC(=O)NC(CCCNC(=N)N)C(=O)Nc1ccc([N+](=O)[O-])cc1.Cl (mixture of isomers) [MMZ-Gly-Arg-pNA.HCl] |  |  |  |  |  | 
4 | 902 | 6.44 s⁻¹ | 7140 | 2840 | 13.6 s⁻¹ | 4790 | COC(=O)C(C)(C)C(=O)NCC(=O)N[C@@H](CCCNC(=N)N)C(=O)Nc1ccc([N+](=O)[O-])cc1.Cl [DMMZ-Gly-Arg-pNA.HCl] |  |  |  |  |  | 
5 | 4080 | 0.096 s⁻¹ | 23.5 |  |  |  | C[C@@H](N)C(=O)N[C@@H](CCCNC(=N)N)C(=O)Nc1ccc([N+](=O)[O-])cc1.Cl.Cl [2HCl.H-D-Ala-Arg-pNA] (H-[dA]-Arg-pNA) |  |  |  |  |  | 
6 | 866 | 1.73 s⁻¹ | 1990 | 2320 | 4.54 s⁻¹ | 1960 | CCC(CC)(C(=O)NCC(=O)N[C@@H](CCCNC(=N)N)C(=O)Nc1ccc([N+](=O)[O-])cc1)C(=O)OC.Cl [DEMZ-Gly-Arg-pNA.HCl] |  |  |  |  |  | 
7 |  | NH |  | 233 | 9.26 s⁻¹ | 39800 | Cc1ccc(S(=O)(=O)NCC(=O)N[C@@H](CCCNC(=N)N)C(=O)Nc2ccc([N+](=O)[O-])cc2)cc1.Cl [pTS-Gly-Arg-pNA.HCl] (Tos-Gly-Arg-pNA) |  |  |  |  |  | 
8 | 2540 | 12.3 s⁻¹ | 4850 | 4700 | 55.0 s⁻¹ | 11700 | COc1ccc(COC(=O)NCC(=O)N[C@@H](CCCNC(=N)N)C(=O)Nc2ccc([N+](=O)[O-])cc2)cc1.Cl [MZ-Gly-Arg-pNA.HCl] |  |  |  |  |  | 
9 | 1330 | 0.059 s⁻¹ | 44.4 | 3080 | 0.088 s⁻¹ | 28.5 | COC(=O)CC(=O)N[C@H](C)C(=O)N[C@@H](CCCNC(=N)N)C(=O)Nc1ccc([N+](=O)[O-])cc1.Cl [MZ-D-Ala-Arg-pNA.HCl] |  |  |  |  |  | 

Continued, compound first:

Row | SMILES | Km [1] [µM] | kcat [1] | kcat /Km [1] [M/s] | Km [2] [µM] | kcat [2] | kcat /Km [2] [M/s] | Factor Xa kcat [3] | Thrombin kcat [4] | Factor Xa kcat /Km [3] [M/s] | Km [3] [µM] | Km [4] [µM] | Thrombin kcat /Km [4] [M/s]
10 | CC(C)[C@H](NC(=O)OCCS(C)(=O)=O)C(=O)N[C@@H](CCCN)C(=O)Nc1ccc([N+](=O)[O-])cc1.Cl [Msc-Val-Orn-pNA.HCl] |  |  |  |  |  |  | NH | NH |  |  |  | 
11 | CC(C)[C@H](NC(=O)CNC(=O)[C@@H]1CCCN1C(=O)CNC(=O)[C@@H](N)CCC(=O)O)C(=O)N[C@@H](CCCNC(=N)N)C(=O)Nc1ccc([N+](=O)[O-])cc1 [2HCl.H-EGPGVR-pNA, 2HCl.H-Glu-Gly-Pro-Gly-Val-Arg-pNA] (H-EGPGVR-pNA) |  |  |  |  |  |  | 3.41 s⁻¹ | 9.07 s⁻¹ | 1560 | 2190 | 1070 | 8440
12 | CC(C)[C@@H](N)C(=O)N[C@@H](CCCNC(=N)N)C(=O)Nc1ccc([N+](=O)[O-])cc1.Cl.Cl [2HCl.H-D-Val-Arg-pNA] (H-[dV]-Arg-pNA) | 4250 | 0.28 s⁻¹ | 65.9 |  |  |  |  |  |  |  |  | 
13 | C[C@H](N)C(=O)N[C@@H](CCCNC(=N)N)C(=O)Nc1ccc([N+](=O)[O-])cc1.Cl.Cl [2HCl.H-Ala-Arg-pNA] (H-Ala-Arg-pNA) | 1140 | 0.074 s⁻¹ | 64.9 |  |  |  |  |  |  |  |  | 
14 | Cl.Cl.NCCC[C@H](NC(=O)[C@@H]1CCCCN1C(=O)[C@H](N)Cc1ccccc1)C(=O)Nc1ccc([N+](=O)[O-])cc1 [2HCl.H-D-Phe-Pip-Orn-pNA] (H-[dF]-[Pip]-[Orn]-pNA) | 420 | 4.64 s⁻¹ | 11100 |  |  |  |  |  |  |  |  | 
15 | COC(=O)CC(=O)N[C@@H](C(=O)N[C@@H](CCCNC(=N)N)C(=O)Nc1ccc([N+](=O)[O-])cc1)C(C)C.Cl [MZ-D-Val-Arg-pNA.HCl] | 1310 | 0.146 s⁻¹ | 111 | 1820 | 0.13 s⁻¹ | 69.5 |  |  |  |  |  | 
16 | CCCC[C@H](NC(=O)[C@@H]1CCCCN1C(=O)[C@H](N)Cc1ccccc1)C(=O)Nc1ccc([N+](=O)[O-])cc1.Cl [HCl.H-D-Phe-Pip-Nle-pNA] (H-[dF]-[Pip]-[Nle]-pNA) | 943 | 11.4 s⁻¹ | 12100 |  | NH |  |  |  |  |  |  | 
17 | Cl.Cl.NCC(=O)N[C@@H](CCCN=C(N)N)C(=O)Nc1ccc([N+](=O)[O-])cc1 [2HCl.H-Gly-Arg-pNA] (H-Gly-Arg-pNA) | 2280 | 0.107 s⁻¹ | 46.9 |  |  |  |  |  |  |  |  | 
18 | COC(=O)C(C)(C)C(=O)N[C@@H](C)C(=O)N[C@@H](CCCNC(=N)N)C(=O)Nc1ccc([N+](=O)[O-])cc1.Cl [DMMZ-Ala-Arg-pNA.HCl] | 565 | 4.08 s⁻¹ | 7220 | 2240 | 11.04 s⁻¹ | 4930 |  |  |  |  |  | 
19 | CCCC[C@H](NC(=O)[C@@H]1CCCN1C(=O)[C@H](N)Cc1ccccc1)C(=O)Nc1ccc([N+](=O)[O-])cc1.Cl [HCl.H-D-Phe-Pro-Nle-pNA] (H-[dF]-Pro-[Nle]-pNA) | 87.9 | 6.66 s⁻¹ | 75400 |  |  |  |  |  |  |  |  | 
20 | COC(=O)C(C)C(=O)NC(C)C(=O)NC(CCCNC(=N)N)C(=O)Nc1ccc([N+](=O)[O-])cc1.Cl (mixture of isomers) [MMZ-Ala-Arg-pNA.HCl] | 666 | 16.5 s⁻¹ | 24800 | 7050 | 40.6 s⁻¹ | 5750 |  |  |  |  |  | 
21 | Cl.N[C@H](Cc1ccccc1)C(=O)N1CCCC[C@H]1C(=O)N[C@@H](CCC(=O)O)C(=O)Nc1ccc([N+](=O)[O-])cc1 [HCl.H-D-Phe-Pip-Glu-pNA] (H-[dF]-[Pip]-Glu-pNA) | 474 | 0.35 s⁻¹ | 739 |  | NH |  |  |  |  |  |  | 
22 | Cl.Cl.NCCCC[C@H](NC(=O)[C@@H]1CCCCN1C(=O)[C@H](N)Cc1ccccc1)C(=O)Nc1ccc([N+](=O)[O-])cc1 [2HCl.H-D-Phe-Pip-Lys-pNA] (H-[dF]-[Pip]-Lys-pNA) | 65.1 | 118.3 s⁻¹ | 1.82e+06 | 963 | 0.61 s⁻¹ | 631 |  |  |  |  |  | 
23 | NC(N)=NCCC[C@H](NC(=O)[C@@H]1CCCCN1C(=O)[C@H](N)Cc1ccccc1)C(=O)Nc1ccc([N+](=O)[O-])cc1 [2HCl.H-D-Phe-Pip-Arg-pNA] | 5.62 | 236.5 s⁻¹ | 4.21e+07 | 174 | 7.49 s⁻¹ | 42900 |  |  |  |  |  | 
24 | Cl.Cl.N=C(N)NCCC[C@H](NC(=O)[C@@H]1CCCN1C(=O)[C@H](N)Cc1ccccc1)C(=O)Nc1ccc([N+](=O)[O-])cc1 [2HCl.H-D-Phe-Pro-Arg-pNA] | 3.16 | 28.4 s⁻¹ | 8.99e+06 | 693 | 18.7 s⁻¹ | 26900 |  |  |  |  |  | 
